Test: Stability of progesterone in charcoal stripped human serum stressed at 37° C. (percent loss by IMx Progesterone immunoassay)
Type: physicochemical
Conditions: for Reduction in % loss of progesterone over time by addition of chelator compared to no added reagent: days 0, 3, 8, 15 and 29, FIG. 1; for Percent loss of progesterone: 5 ng/mL progesterone in charcoal stripped human serum, after 29 days, relative to frozen aliquot
Procedure: Fifteen microliters (15 μL) of a serum sample were mixed with 80 μL of progesterone sample buffer, 80 μL of an anti-progesterone antibody coated microparticle suspension and 75 μL of IMx® Buffer. The reaction mixture was incubated for 20.8 minutes at 37° C. Progesterone sample buffer was an aqueous pH 2.8 solution of 2.25 M glycine, 0.5 μg/mL of 5-∝-dihydrotestosterone, 0.2% (w/v) saponin, 0.1 M sodium chloride and 0.1% methyl isothiazolinone (available from Rohm and Haas, Philadelphia, Pa.). The anti-progesterone antibody (available from University of Surry, Australia) coated microparticle suspension contained 0.001% solids (microparticles available from Seradyne, Indianapolis, Ind.) suspended in a buffer that was a pH 6.5 aqueous solution of 0.5 M morpholinoethanesulphonic acid (MES), 0.1 M sodium chloride, 10% sucrose, 2% bovine serum albumin (available from Intergen, Hawthorne, N.Y.), 0.1 mg/mL sheep IgG (50% ammonium sulfate cut of sheep serum obtained from Irvine Scientific, Santa Ana, Calif.) and 0.2% sodium azide.
One hundred seventy five microliters (175 μL) of the reaction mixture were transferred to the fiber matrix of an IMx® disposable cartridge. The microparticles were then washed with IMx® Buffer. Sixty microliters (60 μL) of 17-hydroxyprogesterone-3-(O-carboxymethyl)oxime alkaline phosphatase conjugate solution were added to the matrix, the reaction was incubated for 8 seconds at 37° C., and then washed again with IMx® Buffer. The conjugate solution contained 17-hydroxyprogesterone (available from Steraloids, Wilton, N.H.) coupled to alkaline phosphatase (available from Boehringer Mannheim, Germany) by means of the EDAC coupling procedure as described in U.S. Pat. No. 5,342,760. The conjugate solution was a pH 7.4 aqueous solution of 50 mM tris, 100 mM sodium chloride, 10 mM magnesium chloride, 0.1 mM zinc chloride, 0.5% casein (available from Sigma Chemical, St. Louis, Mo.) and 0.1% sodium azide containing sufficient conjugate to give a certain signal strength when utilized in an assay of sample free of analyte.
The addition of 4-methylumbelliferone phosphate and quantification of the rate of 4 methylumbelliferone formation was as described in Example 1. Using calibrators containing 0, 1, 4, 10, 20, and 40ng/mL of progesterone a standard curve was constructed.
Test samples were incubated at 37° C. and observed over a period of days or weeks.
Charcoal stripped human serum as prepared in Example 3 (non-alkaline shocked) (10 mL) was aliquoted into glass scintillation vials and various metal chelators were added to the following final concentrations:
Samples were incubated on a rocker for 12 min. at room temperature and then spiked to 5 ng/mL with 10 μg/mL progesterone (available from Sigma Chemical, Saint Louis, Mo.) prepared in an ethanol stock solution. Samples were assayed for baseline concentrations of progesterone following an 8 min. incubation on a rocker at room temperature. Four 1.0 mL aliquots of each composition were placed in TDx® microcentrifuge tubes (available from Abbott Laboratories, Abbott Park, Ill.) and stored frozen −20° C. The scintillation vials were incubated at 37° C. On the days indicated, aliquots were thawed and tested with the corresponding aliquots drawn from the vials stored at 37° C. to assess percent loss.
Percent loss (% loss) is an absolute determination of the loss of progesterone in the stressed sample relative to the frozen aliquot. […]

Row | Compound | Reduction in % loss of progesterone (ranking of chelators) (10 mM DETP, charcoal stripped human serum) | Reduction in % loss of progesterone over time by addition of chelator compared to no added reagent (charcoal stripped human serum) | Percent loss of progesterone (10 mM DETP) | Percent loss of progesterone (no reagent added) [%]
1 | O=C(O)CN(CCN(CC(=O)O)CC(=O)O)CCN(CC(=O)O)CC(=O)O [DETP, diethylenetriaminepentaacetic acid] | most effective | reduction in % loss | – | –
2 | CC(=O)[C@H]1CC[C@H]2[C@@H]3CCC4=CC(=O)CC[C@]4(C)[C@H]3CC[C@]12C [progesterone] | – | – | eliminated | ~80
3 | O=C(O)CN(CCN(CC(=O)O)CC(=O)O)CC(=O)O [EDTA, ethylenediaminetetraacetic acid] | – | reduction in % loss | – | –
